Laboratory results: patent US12213479B2, “Monoterpenoid/phenylpropanoid-containing compounds and methods of their making and use as herbicides” (KITTRICH CORPORATION, priority 2016, dated 2025)

Columns and labels:
soybeans = test: Germination assay, soybeans coated with compound; type: in vivo, soybean; conditions: beans coated in 1% weight compound/weight bean
Description: Soybeans were susceptible to Aphis glycines infestation and were not determined to be a biotype that was resistant to infestation, which could confide results. Germination typically occurred between 3-5 days after moistening.

Soybean plants [1] = test: Soil drench assay, soybean plants; type: in vivo; set-up: key to phytotoxicity (qualitative), soil drench: NOE: No Observable Effect; XXX: Dead; -: the lowest phytotoxic effect; --: phytotoxicity that did not result in death; ---: phytotoxicity that did not result in death; ------: the highest; conditions: for overall phytotoxicity to soybean plants, soil drench: 0.5%-1% formulations; for phytotoxicity (qualitative), soil drench: Soybean, 40 mL
Protocol: Soybean plants were planted under 1 cm of potting soil and watered every 2-3 days as necessary. Plants were grown in pots (6″ wide×4.5″ deep) with approximately 800 mL of soil for each plant. Seeds germinated approximately 3-5 days after being planted. Plants were grown in a greenhouse under a constant temperature and light environment (25±5° C., 12 hr: 12 hr light: dark cycle). Plants were grown until reaching 1-2 weeks old and 3-4 weeks old; these plants served as the “young” and “old” plants in this study, respectively.
Formulations of the various active ingredients were created using the monoterpenoid derivatives, potassium hydroxide, and Triton-X 100™ to aid in the solvation of the active ingredient. Formulations consisted of 0.5%-1% active ingredient by weight (0.5-1 g/100 ml water), with a 1:1 molar ratio of potassium hydroxide used to aid in the solvation (135-269 mg/100 mL for both thymyloxyacetic acid and carvacryloxyacetic acid). […] Formulations were applied to the soil next to the base of the stem of the plant to avoid foliar contact. Observations were performed 2 days and 3 weeks after soil drench to determine the effects of the treatments on the various types and stages of plants.

Corn plants = test: Soil drench assay, corn plants; type: in vivo; set-up: key to phytotoxicity (qualitative), soil drench: NOE: No Observable Effect; XXX: Dead; -: the lowest phytotoxic effect; --: phytotoxicity that did not result in death; ---: phytotoxicity that did not result in death; ------: the highest; conditions: for overall phytotoxicity to corn plants, soil drench: 0.5%-1% formulations; for phytotoxicity (qualitative), soil drench: Corn, 40 mL
Protocol: Corn plants were planted under ½″ of potting soil and watered every 2-3 days as necessary. Plants were grown in potting plants (6″ wide×4.5″ deep) with approximately 800 mL of soil for each plant. Seeds germinated approximately 4-7 days after being planted. Plants were grown in a greenhouse under a constant temperature and light environment (25±5° C., 12 hr: 12 hr light: dark cycle). Plants were grown until reaching 1-2 weeks old and 3-4 weeks old; these plants served as the “young” and “old” plants in this study, respectively. Formulations of the various active ingredients were created using the monoterpenoid derivatives, potassium hydroxide, and Triton-X 100™ to aid in the solvation of the active ingredient. […] Formulations were applied to the soil next to the base of the stem of the plant to avoid foliar contact. Observations were performed 2 days and 3 weeks after soil drench to determine the effects of the treatments on the various types and stages of plants.

Soybean plants [2] = test: Soil drench assay, soybean plants; type: in vivo; set-up: key: NOE: No Observable Effect; XXX: Dead; -: the lowest phytotoxic effect; --: phytotoxicity that did not result in death; ---: phytotoxicity that did not result in death; ------: the highest; conditions: 3-weeks after treatment, Old Plants, 7%, 40 mL
corn seeds = test: Germination assay, corn seeds coated with compound; conditions: for inhibition of corn seed germination: seed coating 1% weight compound/weight seed, 3, 5, 7 days
[3] = 2-days after treatment, Old Plants, 0.50%
[4] = 2-days after treatment, Old Plants, 1%
[5] = 2-days after treatment, Young Plants, 0.50%
[6] = 2-days after treatment, Young Plants, 1%
[7] = 3-weeks after treatment, Old Plants, 0.50%
[8] = 3-weeks after treatment, Young Plants, 0.50%
[9] = 3-weeks after treatment, Young Plants, 1%
[10] = 3-weeks after treatment, Old Plants, 1%

| SMILES | inhibition of soybean germination/growth (words) (soybeans) | overall phytotoxicity to soybean plants, soil drench (Soybean plants [1]) | phytotoxicity (qualitative), soil drench (Soybean plants [1]; [3]) | phytotoxicity (qualitative), soil drench (Soybean plants [1]; [4]) | phytotoxicity (qualitative), soil drench (Soybean plants [1]; [5]) | phytotoxicity (qualitative), soil drench (Soybean plants [1]; [6]) | phytotoxicity (qualitative), soil drench (Soybean plants [1]; [7]) | phytotoxicity (qualitative), soil drench (Soybean plants [1]; [8]) | phytotoxicity (qualitative), soil drench (Soybean plants [1]; [9]) | overall phytotoxicity to corn plants, soil drench (Corn plants) | phytotoxicity (qualitative), soil drench (Corn plants; [3]) | phytotoxicity (qualitative), soil drench (Corn plants; [4]) | phytotoxicity (qualitative), soil drench (Corn plants; [5]) | phytotoxicity (qualitative), soil drench (Corn plants; [6]) | phytotoxicity (qualitative), soil drench (Corn plants; [7]) | phytotoxicity (qualitative), soil drench (Corn plants; [10]) | phytotoxicity (qualitative), soil drench (Corn plants; [8]) | phytotoxicity (qualitative), soil drench (Corn plants; [9]) | phytotoxicity (qualitative), soil drench (Soybean plants [2]) | inhibition of corn seed germination (corn seeds) | further results |
| --- | --- | --- | --- | --- | --- | --- | --- | --- | --- | --- | --- | --- | --- | --- | --- | --- | --- | --- | --- | --- | --- |
| COc1cc(C=O)ccc1OCC(=O)O [vanillyloxyacetic acid, 2-(4-formyl-2-methoxyphenoxy)acetic acid] | little to no inhibitory effect | did not cause phytotoxic effects | NOE | NOE | NOE | NOE | NOE | NOE | NOE | did not produce significant phytotoxic symptoms | NOE | NOE | NOE | NOE | NOE | NOE | NOE | NOE | NOE | significantly inhibited by all compounds screened except for | inhibition of soybean germination/growth (words) (soybeans; listed as Vanillyloxyacetic acid): does not produce significant inhibition of plant growth |
| COc1cc(C(=O)O)ccc1OCC(=O)O [vanillic acid-oxyacetic acid, 4-(carboxymethoxy)-3-methoxybenzoic acid] |  | did not cause phytotoxic effects | NOE | NOE | NOE | NOE | NOE | NOE | NOE | did not produce significant phytotoxic symptoms | NOE | NOE | NOE | NOE | NOE | NOE | NOE | NOE | NOE | significantly inhibited by all compounds screened except for |  |
| COC(=O)COc1cc(C)ccc1C(C)C [thymyloxyacetate methyl ester] |  | significantly inhibited the growth of soybeans | --- |  | --- |  | XXX | XXX | XXX | most phytotoxic to corn | -- | -- | -- | -- | XXX | XXX | XXX | XXX | XXX |  |  |
| C=CCc1ccc(OCC(=O)O)c(OC)c1 [eugenyloxyacetic acid, 2-(4-allyl-2-methoxyphenoxy)acetic acid] | prevented the growth of soybeans |  | - | - | - | -- | XXX | - | XXX |  | NOE | - | NOE | NOE | - | -- | - | -- | - |  | corn seed germination at day 3 (corn seeds; seed coating, day 3): some level of germination |
| C=CCc1ccc(OCC(=O)OC)c(OC)c1 [eugenyloxyacetic acid methyl ester] |  |  |  |  |  |  |  |  |  |  |  |  |  |  |  |  |  |  |  | most capable of inhibiting the growth of corn seeds |  |
